This note sets out measurements from ChEMBL document CHEMBL3259772, “Identification and characterization of small molecule modulators of the Epstein-Barr virus-induced gene 2 (EBI2) receptor” (J Med Chem, 2014).

Each structure is given as a SMILES string.

Assay type in all cases: ADME, organism-based
Data set [1] can be described thus: Oral bioavailability in C57BL/6 mouse at 5 mg/kg administered as cassette dose. Conditions: in vivo.
A short description of data set [2]: AUC (infinity) in C57BL/6 mouse at 1 mg/kg, iv administered as cassette dose. On the set-up: time infinity, dose 1 mg/kg, route intravenous. Conditions: plasma.
The nature of data set [3]: Cmax in C57BL/6 mouse at 5 mg/kg, po administered as cassette dose. On the set-up: dose 5 mg/kg, route oral. Conditions: in vivo.
Data set [4] can be described thus: Terminal blood half life in C57BL/6 mouse at 1 mg/kg, iv administered as cassette dose. More on the design: dose 1 mg/kg, route intravenous. Conditions: read-out: beta t1/2 (converted).
Data set [5] in a line: AUC (infinity) in C57BL/6 mouse at 5 mg/kg, po administered as cassette dose. More on the design: time infinity, dose 5 mg/kg, route oral. Conditions: plasma.
Data set [6] in a line: Tmax in C57BL/6 mouse at 5 mg/kg, po administered as cassette dose. On the set-up: dose 5 mg/kg, route oral. Conditions: in vivo.
The nature of data set [7]: Apparent volume of distribution at steady state in C57BL/6 mouse at 1 mg/kg, iv administered as cassette dose. More on the design: dose 1 mg/kg, route intravenous. Conditions: in vivo, read-out: Vdss(app).
Another data set deals with Mus musculus. Nature of the data set: Total blood clearance in C57BL/6 mouse at 1 mg/kg, iv administered as cassette dose. On the set-up: dose 1 mg/kg, route intravenous. The conditions noted are these: in vivo.

On to `COc1ccc(C(=O)N2CCN(C(=O)/C=C/c3ccc(Br)cc3)CC2)cc1`, for which the bioavailability (as a rule, the share of a dose that reaches the circulation, judged against a reference dose that is usually intravenous) in data set [1] was 49%. For the same compound, the area under the curve AUC(0-inf) – broadly, the area under the concentration-time curve extrapolated to infinity – in data set [2] worked out at 2.44 µM·h; in data set [5] it was 3.61 µM·h. For the same compound, in data set [3], the Cmax (as a rule, the peak of the concentration-time curve) is 835 nM. The half-life in data set [4] is 1.1 h. Further, the Tmax (usually the time from dosing to the highest level) in data set [6] turned out to be 1 h. The Vd in data set [7] was 1.4 L/kg. The compound further displayed a CL with Mus musculus of 16 µL/min/mg.
`COc1ccc(/C=C/C(=O)N2CCN(C(=O)c3ccc(OC)cc3)CC2)cc1` showed an AUC(0-inf) in data set [2] of 0.841 µM·h. Further, the half-life in data set [4] was 0.2 h. In data set [7], the Vd was found to be 0.8 L/kg. For the same compound, the CL in the data set with Mus musculus came out at 52 µL/min/mg.
